Patent EP3319959B1, “HETERO-HALO INHIBITORS OF HISTONE DEACETYLASE” (Alkermes, Inc., priority 2015, dated 2017)

The molecules below were run on SH-SY5Y cells (assay: Cell assay in SH-SY5Y cells with HDAC-Glo 2 reagent). Conditions: Homo sapiens, 5 h, five hours at 37°C, CI-994 at 100 uM defined as 100% inhibition.
Assay type: cell-based
Experimental: SH-SY5Y cells (Sigma) were cultured in Eagle's Modified Essential Medium supplemented with 10% fetal bovine serum and pen/strep. Twenty-four hours prior to compound dosing 20 uL of cells were plated in white 384 well plates at a density of 1,500 cells/well. Compounds were serially diluted in neat DMSO and then diluted 1:100 v/v into media without FBS and mixed. Media was removed from the plated cells and the diluted compounds in serum free media (1% v/v final DMSO) were added and incubated at 37°C for five hours. Ten uL of HDAC-Glo 2 reagent with 0.1% Triton X-100 was then added, the plate was mixed and allowed to develop at room temperature for 100 minutes. Plates were then read with a Spectramax LMax luminometer employing a 0.4s integration time. Dose response curves were constructed with normalized data where CI-994 at 100 uM was defined as 100% inhibition and DMSO alone as 0% inhibition. Table 5. IC50 and EC50 Values for Exemplary Compounds Useful in the Invention

Row | EC50 | Structure (SMILES)
1 | 500 to 5000 nM | Cn1ncc2c1CN(C(=O)Nc1nc(-c3ccc(F)cc3)ccc1N)C2 [Compound 258]
2 | 100 to 500 nM | CC(C)Cc1cnc2c(c1)CN(C(=O)Nc1nc(-c3ccc(F)cc3)ccc1N)C2 [Compound 274]
3 | 500 to 5000 nM | Nc1ccc(-c2ccc(F)cc2)nc1NC(=O)N1Cc2cncnc2C1 [Compound 277]
4 | 100 to 500 nM | CN(C)Cc1cnc2c(c1)CN(C(=O)Nc1nc(-c3cccnc3)ccc1N)C2 [Compound 161]
5 | 100 to 500 nM | CN(C)Cc1cnc2c(c1)CN(C(=O)Nc1nc(-c3cccs3)ccc1N)C2 [Compound 145]
6 | 500 to 5000 nM | CN(C)Cc1ccc2c(c1)CN(C(=O)Nc1nc(-c3ccc(F)cc3)ccc1N)C2 [Compound 371]
7 | 100 to 500 nM | Nc1ccc(-c2ccc(F)cc2)nc1NC(=O)N1Cc2ccc(CN3CCCC3)cc2C1 [Compound 405]
8 | > 5000 nM | CN1CCN(C[C@@H]2[C@H]3CN(C(=O)Nc4nc(-c5ccc(F)cc5)ccc4N)C[C@@H]23)CC1 [Compound 269]
9 | 100 to 500 nM | Nc1ccc(-c2cccs2)nc1NC(=O)N1Cc2nccnc2C1 [Compound 156]
10 | 500 to 5000 nM | CN1CCC(c2cnc3c(c2)CN(C(=O)Nc2nc(-c4cccnc4)ccc2N)C3)CC1 [Compound 265]

These molecules were tested on recombinant human HDACs (assay: HDAC enzymatic assay (LabChip capillary electrophoresis)). Conditions: 5 nM HDAC enzyme, 1 uM substrate, 5 hours pre-incubation, 17 hours reaction at 25°C; isoform not given.
Assay type: biochemical
Experimental: All recombinant human HDACs were purchased from BPS Bioscience. The substrate, FAM-TSRHK(AC)KL-CONH, was synthesized at NanoSyn. Final assay reactions contained 100 mM HEPES (pH 7.5), 50 mM KCl, 0.1% BSA, 0.01% Triton X-100, 1% DMSO, 1 uM substrate and 5 nM HDAC enzyme. Enzyme and compounds were pre-incubated at 25°C for 5 hours and reactions were initiated by addition of substrate. 10 uL reactions were incubated for 17 hours at 25°C and terminated by the addition of 40 uL of buffer containing 100 mM HEPES (pH 7.5), 0.1% BSA, 0.01% Triton X-100 and 0.05% SDS. Substrate and product peptides present in each sample were separated electrophoretically using the LabChip 3000 capillary electrophoresis instrument. Change in the relative fluorescence intensity of the substrate and product peaks reflects enzyme activity. Reaction progress was determined as the product to sum ratio (PSR): P/(S+P), where P is the peak height of the product peptide and S is the peak height of the substrate peptide. Reactions were performed in duplicate at 12 concentrations, (3X serial dilutions starting at 30 uM). IC50 values were calculated using a 4 Parameter Logistic Model.

Row | Structure (SMILES) | IC50
11 | Nc1cn(-c2ccccc2)nc1NC(=O)N1CCC2(CCOCC2)C1 [Compound 407] | > 5000 nM
12 | Nc1ccc(-n2cccn2)nc1NC(=O)N1CC2CN(Cc3ccccc3F)CC2C1 (stereo not drawn) [Compound 177] | > 5000 nM
13 | Cn1cc(CN2CCCC3(CCN(C(=O)Nc4nn(-c5ccc(F)cc5)cc4N)C3)C2)cn1 (stereo not drawn) [Compound 123] | > 5000 nM
14 | CN1CC(n2ncc3c2CN(C(=O)Nc2nc(-c4ccc(F)cc4)ccc2N)C3)C1 [Compound 246] | > 5000 nM
15 | Nc1ccc(-c2ccco2)nc1NC(=O)N1CC2CC(N3CC(F)C3)CC2C1 (stereo not drawn) [Compound 189] | > 5000 nM
16 | Nc1cn(-c2ccccc2)nc1NC(=O)C1CCN(C2COC2)CC1 [Compound 359] | > 5000 nM
17 | Nc1ccc(-c2ccco2)nc1NC(=O)N1CC2CN(Cc3ccccc3F)CC2C1 (stereo not drawn) [Compound 175] | > 5000 nM
18 | Nc1ccc(-c2ccc(F)cc2)nc1NC(=O)N1Cc2cccc(N3CCCC3)c2C1 [Compound 249] | > 5000 nM
19 | Nc1ccc(-c2ccc(F)cc2)nc1NC(=O)C1CN(c2ccccn2)C1 [Compound 192] | > 5000 nM
20 | COCC1CCN(C(=O)Nc2nc(-c3ccc(F)cc3)ccc2N)C1 (stereo not drawn) [Compound 389] | > 5000 nM
21 | Nc1ccc(-c2ccccc2)nc1NC(=O)CN1CCn2cncc2C1 [Compound 194] | > 5000 nM
22 | Nc1ccc(-c2cccnc2)nc1NC(=O)c1cn2c(n1)CNCC2 [Compound 219] | > 5000 nM
23 | Nc1ccc(-c2ccccc2)nc1NC(=O)C1CCN(C2COC2)CC1 [Compound 381] | > 5000 nM
24 | Nc1ccc(-c2ccc(F)cc2)nc1NC(=O)N1CC2CN(CC3CCOCC3)CC2C1 (stereo not drawn) [Compound 235] | > 5000 nM
25 | Cc1cc(F)ccc1-c1ccc(N)c(NC(=O)N2Cc3cnc(CN(C)C)cc3C2)n1 [Compound 261] | > 5000 nM
26 | Nc1ccc(-c2ccc(F)cc2)nc1NC(=O)N1CCN2CCCC2C1 (stereo not drawn) [Compound 224] | > 5000 nM
27 | CN1CCCC2(CCN(C(=O)Nc3nc(-c4cccnc4)ccc3N)C2)C1 (stereo not drawn) [Compound 211] | > 5000 nM
28 | Nc1ccc(-c2cccnc2)nc1NC(=O)C1CCN(Cc2ccccc2F)CC1 [Compound 378] | > 5000 nM
29 | COc1cccc(CN2CCCC3(CCN(C(=O)Nc4nc(-c5ccc(F)cc5)ccc4N)C3)C2)c1 (stereo not drawn) [Compound 222] | > 5000 nM
30 | Nc1ccc(-c2cccnc2)nc1NC(=O)N1CC2(CCNCC2)C1 [Compound 220] | > 5000 nM
31 | Nc1cn(-c2ccccc2)nc1NC(=O)N1CC2COCC2C1 (stereo not drawn) [Compound 382] | > 5000 nM
32 | Nc1ccc(-c2ccco2)nc1NC(=O)C1CN(c2ccccn2)C1 [Compound 193] | > 5000 nM
33 | Nc1cn(-c2ccccc2)nc1NC(=O)C1CCNCC1 [Compound 357] | > 5000 nM
34 | CN1CCN(C(=O)Nc2nn(-c3ccccc3)cc2N)CC1 [Compound 361] | > 5000 nM
35 | Nc1ccc(-c2ccccc2)nc1NC(=O)C1CN(c2ccccn2)C1 [Compound 195] | > 5000 nM
36 | CN1CCC(C(=O)Nc2nn(-c3ccccc3)cc2N)CC1 [Compound 354] | > 5000 nM
37 | CN1CC2CN(C(=O)Nc3nc(-n4cccn4)ccc3N)CC2C1 (stereo not drawn) [Compound 184] | > 5000 nM
38 | Nc1ccc(-n2cccn2)nc1NC(=O)C1CN(Cc2ccccc2)C1 [Compound 205] | > 5000 nM
39 | Nc1ccc(-n2cccn2)nc1NC(=O)N1CC2CC(N3CC(F)C3)CC2C1 (stereo not drawn) [Compound 190] | > 5000 nM
40 | CN1CC=C(c2ccc3c(c2)CN(C(=O)Nc2nc(-c4ccc(F)cc4)ccc2N)C3)CC1 [Compound 362] | 100 to 500 nM

Second part, the molecule after the results:

Row | IC50 | Structure (SMILES)
41 | 500 to 5000 nM | Cn1ncc2c1CN(C(=O)Nc1nc(-c3ccc(F)cc3)ccc1N)C2 [Compound 258]
42 | 100 to 500 nM | CC(C)Cc1cnc2c(c1)CN(C(=O)Nc1nc(-c3ccc(F)cc3)ccc1N)C2 [Compound 274]
43 | 500 to 5000 nM | Nc1ccc(-c2ccc(F)cc2)nc1NC(=O)N1Cc2cncnc2C1 [Compound 277]
44 | 100 to 500 nM | CN(C)Cc1cnc2c(c1)CN(C(=O)Nc1nc(-c3cccnc3)ccc1N)C2 [Compound 161]
45 | 100 to 500 nM | CN(C)Cc1cnc2c(c1)CN(C(=O)Nc1nc(-c3cccs3)ccc1N)C2 [Compound 145]
46 | 100 to 500 nM | CN(C)Cc1ccc2c(c1)CN(C(=O)Nc1nc(-c3ccc(F)cc3)ccc1N)C2 [Compound 371]
47 | 100 to 500 nM | Nc1ccc(-c2ccc(F)cc2)nc1NC(=O)N1Cc2ccc(CN3CCCC3)cc2C1 [Compound 405]
48 | > 5000 nM | CN1CCN(C[C@@H]2[C@H]3CN(C(=O)Nc4nc(-c5ccc(F)cc5)ccc4N)C[C@@H]23)CC1 [Compound 269]
49 | 100 to 500 nM | Nc1ccc(-c2cccs2)nc1NC(=O)N1Cc2nccnc2C1 [Compound 156]
50 | 500 to 5000 nM | CN1CCC(c2cnc3c(c2)CN(C(=O)Nc2nc(-c4cccnc4)ccc2N)C3)CC1 [Compound 265]
51 | 100 to 500 nM | Nc1ccc(-c2ccc(F)cc2)nc1NC(=O)N1Cc2cnc(N3CCOCC3)cc2C1 [Compound 150]
52 | 500 to 5000 nM | CN1CCN(Cc2ccc3c(c2)CN(C(=O)Nc2nn(-c4ccccc4)cc2N)C3)CC1 [Compound 353]
53 | > 5000 nM | Nc1ccc(-c2ccc(F)cc2)nc1NC(=O)N1CC2CN(CCF)CC2C1 (stereo not drawn) [Compound 183]
54 | 500 to 5000 nM | Nc1ccc(-c2cccnc2)nc1NC(=O)N1Cc2nccnc2C1 [Compound 214]
55 | 500 to 5000 nM | Nc1ccc(-c2ccc(F)cc2)nc1NC(=O)N1Cc2cc(F)cnc2C1 [Compound 186]
56 | 500 to 5000 nM | COC1CCN(C(=O)Nc2nc(-c3ccc(F)cc3)ccc2N)C1 (stereo not drawn) [Compound 388]
57 | 100 to 500 nM | CN1CCN(Cc2cnc3c(c2)CN(C(=O)Nc2nc(-c4ccc(F)cc4)ccc2N)C3)CC1 [Compound 168]
58 | 500 to 5000 nM | Nc1ccc(-n2cccn2)nc1NC(=O)N1Cc2ccncc2C1 [Compound 369]
59 | 100 to 500 nM | Nc1ccc(-c2ccc(F)cc2)nc1NC(=O)N1Cc2ccc(CN3CCC(C(F)(F)F)C3)cc2C1 (stereo not drawn) [Compound 408]
60 | 100 to 500 nM | CN1CCc2sc(C(=O)Nc3nc(-c4ccc(F)cc4)ccc3N)nc2C1 [Compound 153]
61 | 500 to 5000 nM | Nc1cn(-c2ccc(F)cc2)nc1NC(=O)N1CCN(C(=O)[C@@H]2C[C@H]2c2ccccc2)CC1 [Compound 125]

Row | IC50 | Structure (SMILES)
62 | 100 to 500 nM | Nc1ccc(-c2ccc(F)cc2)nc1NC(=O)c1nc2c(s1)CCN(CCF)C2 [Compound 165]
63 | 500 to 5000 nM | CN1CCN(c2ccc3c(c2)CN(C(=O)Nc2nn(-c4ccccc4)cc2N)C3)CC1 [Compound 352]
64 | 500 to 5000 nM | COc1ccc(-c2ccc(N)c(NC(=O)N3Cc4cc(F)cnc4C3)n2)cc1 [Compound 187]
65 | 500 to 5000 nM | CN1CCN(C2CC3CN(C(=O)Nc4nc(-c5ccc(F)cc5)ccc4N)CC3C2)CC1 (stereo not drawn) [Compound 179]
66 | 500 to 5000 nM | Cc1ccc(C2CN(C(=O)Nc3nc(-c4ccc(F)cc4)ccc3N)C2)cc1 [Compound 170]
67 | 500 to 5000 nM | Nc1ccc(-c2ccccc2)nc1NC(=O)N1CC2CC(NC3COC3)CC2C1 (stereo not drawn) [Compound 191]
68 | 100 to 500 nM | Nc1ccc(-c2ccc(F)cc2)nc1NC(=O)N1Cc2cc(N3CCOCC3)cnc2C1 [Compound 158]
69 | 500 to 5000 nM | Nc1ccc(-c2ccc(F)cc2)nc1NC(=O)N1CC2COCC2C1 (stereo not drawn) [Compound 392]
70 | 500 to 5000 nM | CN1CCC(N2CCC(C(=O)Nc3nc(-c4ccc(F)cc4)ccc3N)CC2)CC1 [Compound 368]
71 | 100 to 500 nM | CN1CC(Cn2cc3c(n2)CN(C(=O)Nc2nc(-c4ccc(F)cc4)ccc2N)C3)C1 [Compound 245]
72 | 500 to 5000 nM | Nc1ccc(-c2ccc(F)cc2)nc1NC(=O)N1CC2CCCC2C1 (stereo not drawn) [Compound 385]
73 | 500 to 5000 nM | Nc1ccc(-c2cccnc2)nc1NC(=O)c1nc2c(s1)CCN(CCF)C2 [Compound 164]
74 | 100 to 500 nM | COc1cc2c(cn1)CN(C(=O)Nc1nc(-c3ccc(F)cc3)ccc1N)C2 [Compound 260]
75 | 500 to 5000 nM | CN(C)CCN1CC2CN(C(=O)Nc3nc(-c4ccc(F)cc4)ccc3N)CC2C1 (stereo not drawn) [Compound 166]
76 | 100 to 500 nM | CN(C)Cc1ccc2c(c1)CN(C(=O)Nc1nc(-c3cccs3)ccc1N)C2 [Compound 409]
77 | 500 to 5000 nM | Nc1ccc(-c2ccc(OC(F)F)cc2)nc1NC(=O)N1CCCC1 [Compound 232]
78 | 500 to 5000 nM | Nc1ccc(-n2cccn2)nc1NC(=O)N1Cc2cc(F)cnc2C1 [Compound 185]
79 | 500 to 5000 nM | Nc1cn(-c2ccccc2)nc1NC(=O)N1Cc2ccc(CO)cc2C1 [Compound 350]
80 | 100 to 500 nM | Nc1ccc(-c2ccc(F)cc2)nc1NC(=O)N1Cc2ccc(CN3CCC(F)(F)C3)cc2C1 [Compound 386]
81 | 500 to 5000 nM | CN1CCC(N2CC3CN(C(=O)Nc4nc(-c5ccc(F)cc5)ccc4N)CC3C2)CC1 (stereo not drawn) [Compound 169]
